ChEMBL document CHEMBL1134339, “New 1-aryl-3-(4-arylpiperazin-1-yl)propane derivatives, with dual action at 5-HT1A serotonin receptors and serotonin transporter, as a new class of antidepressants” (J Med Chem, 2001)

The compounds below were run on Mus musculus (assay: Effect on immobility time in the forced swimming test (FST) in mice at 1 mg/kg dose). Settings: not given.
Type: functional

SMILES	Immobility time [s]
COc1ccccc1N1CCN(CCC(O)c2csc3ccccc23)CC1 (stereo not given)	101.8
COc1ccccc1N1CCN(CCC(Oc2cccc3ccccc23)c2ccsc2)CC1 (stereo not given)	<91.6
COc1ccccc1N1CCN(CCC(=O)c2csc3ccccc23)CC1	<77.1

What follows are compounds tested on Mus musculus (assay: Time-dependent effect on 8-OH-DPAT-induced hypothermia (change in body temperature) after 60 min, in mice at 0.1 mg/kg dose). Settings: not given.
Type: functional

SMILES	Temperature change [°C]
COc1ccccc1N1CCN(CCC(O)c2csc3ccccc23)CC1 (stereo not given)	-0.4
COc1ccccc1N1CCN(CCC(Oc2cccc3ccccc23)c2ccsc2)CC1 (stereo not given)	-1.16
COc1ccccc1N1CCN(CCC(=O)c2csc3ccccc23)CC1	-1.13

These compounds were tested on Mus musculus (assay: Effect on immobility time in the forced swimming test (FST) in mice at 0 mg/kg dose). Settings: not given.
Type: functional

SMILES	Immobility time [s]
COc1ccccc1N1CCN(CCC(O)c2csc3ccccc23)CC1 (stereo not given)	145
COc1ccccc1N1CCN(CCC(Oc2cccc3ccccc23)c2ccsc2)CC1 (stereo not given)	157.1
COc1ccccc1N1CCN(CCC(=O)c2csc3ccccc23)CC1	169.4

Each compound was assayed against T1, 5-hydroxytryptamine receptor 1A (Homo sapiens) (UniProt P08908). Settings: HeLa.
T1 sequence (whole entry): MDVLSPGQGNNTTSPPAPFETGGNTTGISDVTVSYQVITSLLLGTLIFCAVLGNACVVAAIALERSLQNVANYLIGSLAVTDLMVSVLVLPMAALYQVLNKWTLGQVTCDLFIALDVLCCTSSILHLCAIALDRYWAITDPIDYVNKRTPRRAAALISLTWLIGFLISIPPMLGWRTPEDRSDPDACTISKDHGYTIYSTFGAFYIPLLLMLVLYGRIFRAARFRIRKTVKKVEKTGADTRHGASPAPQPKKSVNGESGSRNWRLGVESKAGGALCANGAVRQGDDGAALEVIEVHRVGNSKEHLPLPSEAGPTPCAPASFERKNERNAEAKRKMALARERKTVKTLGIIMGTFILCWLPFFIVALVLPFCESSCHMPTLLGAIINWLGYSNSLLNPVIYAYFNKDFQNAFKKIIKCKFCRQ
Description: Effect (1 uM) on Forskolin-Stimulated cAMP formation, in HeLa cells transfected with the 5-HT 1A receptor

SMILES	cAMP [pmol/well]
COc1ccccc1N1CCN(CCC(O)c2csc3ccccc23)CC1 (stereo not given)	18.1
COc1ccccc1N1CCN(CCC(Oc2cccc3ccccc23)c2ccsc2)CC1 (stereo not given)	< 15.4
COc1ccccc1N1CCN(CCC(=O)c2csc3ccccc23)CC1	< 20.8

The compounds below were run on Mus musculus (assay: Effect on immobility time in the forced swimming test (FST) in mice at 10 mg/kg dose). Settings: not given.
Type: functional

SMILES	Immobility time [s]
COc1ccccc1N1CCN(CCC(O)c2csc3ccccc23)CC1 (stereo not given)	143.5
COc1ccccc1N1CCN(CCC(Oc2cccc3ccccc23)c2ccsc2)CC1 (stereo not given)	<91.1
COc1ccccc1N1CCN(CCC(=O)c2csc3ccccc23)CC1	<86.6

Biological target: T1, 5-hydroxytryptamine receptor 1A (Homo sapiens)
Settings: HeLa
Remark: another data set of the same source
Description: Effect on Forskolin-Stimulated cAMP formation, in HeLa cells transfected with the 5-HT 1A receptor at 1 uM concentration

SMILES	cAMP [pmol/well]
COc1ccccc1N1CCN(CCC(O)c2csc3ccccc23)CC1 (stereo not given)	19.1
COc1ccccc1N1CCN(CCC(Oc2cccc3ccccc23)c2ccsc2)CC1 (stereo not given)	28.5
COc1ccccc1N1CCN(CCC(=O)c2csc3ccccc23)CC1	27

These compounds were tested on Mus musculus (assay: Time-dependent effect on 8-OH-DPAT-induced hypothermia (change in body temperature) after 15 min, in mice at 0.1 mg/kg dose). Settings: not given.
Type: functional

SMILES	Temperature change [°C]
COc1ccccc1N1CCN(CCC(O)c2csc3ccccc23)CC1 (stereo not given)	-1.6
COc1ccccc1N1CCN(CCC(Oc2cccc3ccccc23)c2ccsc2)CC1 (stereo not given)	-2.12
COc1ccccc1N1CCN(CCC(=O)c2csc3ccccc23)CC1	-2.14

Each compound was assayed on Mus musculus (assay: Effect on immobility time in the forced swimming test (FST) in mice at 0.1 mg/kg dose). Settings: not given.
Type: functional

SMILES	Immobility time [s]
COc1ccccc1N1CCN(CCC(O)c2csc3ccccc23)CC1 (stereo not given)	<99.5
COc1ccccc1N1CCN(CCC(Oc2cccc3ccccc23)c2ccsc2)CC1 (stereo not given)	194.4
COc1ccccc1N1CCN(CCC(=O)c2csc3ccccc23)CC1	141.4

The compounds below were run on Mus musculus (assay: Time-dependent effect on 8-OH-DPAT-induced hypothermia (change in body temperature) after 15 min, in mice at 5 mg/kg dose). Settings: not given.
Type: functional

SMILES	Temperature change [°C]
COc1ccccc1N1CCN(CCC(O)c2csc3ccccc23)CC1 (stereo not given)	-2.2
COc1ccccc1N1CCN(CCC(Oc2cccc3ccccc23)c2ccsc2)CC1 (stereo not given)	-2.73
COc1ccccc1N1CCN(CCC(=O)c2csc3ccccc23)CC1	-2.53

These compounds were tested on Rattus norvegicus (assay: Effect on helpless behavior in rats and the number of escape failures was determined in shuttle-box session-1 (SB-1) at 1 mg/kg dose). Settings: not given.
Type: functional

SMILES	No. of escape failures
COc1ccccc1N1CCN(CCC(O)c2csc3ccccc23)CC1 (stereo not given)	8
COc1ccccc1N1CCN(CCC(Oc2cccc3ccccc23)c2ccsc2)CC1 (stereo not given)	5.8
COc1ccccc1N1CCN(CCC(=O)c2csc3ccccc23)CC1	<9.8

The compounds below were run on Rattus norvegicus (assay: Effect on helpless behavior in rats and the number of escape failures was determined in shuttle-box session-2 (SB-2) at 1 mg/kg dose). Settings: not given.
Type: functional

SMILES	No. of escape failures
COc1ccccc1N1CCN(CCC(O)c2csc3ccccc23)CC1 (stereo not given)	2.3
COc1ccccc1N1CCN(CCC(Oc2cccc3ccccc23)c2ccsc2)CC1 (stereo not given)	1.3
COc1ccccc1N1CCN(CCC(=O)c2csc3ccccc23)CC1	<4

These compounds were tested on Mus musculus (assay: Time-dependent effect on 8-OH-DPAT-induced hypothermia (change in body temperature) after 15 min, in mice at 0.5 mg/kg dose). Settings: not given.
Type: functional

SMILES	Temperature change [°C]
COc1ccccc1N1CCN(CCC(O)c2csc3ccccc23)CC1 (stereo not given)	-1.23
COc1ccccc1N1CCN(CCC(Oc2cccc3ccccc23)c2ccsc2)CC1 (stereo not given)	-1.72
COc1ccccc1N1CCN(CCC(=O)c2csc3ccccc23)CC1	<-1.58

These compounds were tested on Mus musculus (assay: Time-dependent effect on 8-OH-DPAT-induced hypothermia (change in body temperature) after 30 min, in mice at 0.5 mg/kg dose). Settings: not given.
Type: functional

SMILES	Temperature change [°C]
COc1ccccc1N1CCN(CCC(O)c2csc3ccccc23)CC1 (stereo not given)	-1.38
COc1ccccc1N1CCN(CCC(Oc2cccc3ccccc23)c2ccsc2)CC1 (stereo not given)	-1.35
COc1ccccc1N1CCN(CCC(=O)c2csc3ccccc23)CC1	<-0.86

What follows are compounds tested against T2, Adrenergic receptor alpha-1 (Rattus norvegicus, UniProt P15823+P23944+P43140) (assay: Affinity towards alpha-1 adrenergic receptor from rat cortex using [3H]prazosin radioligand (For prazosin Ki(nM)= […]+/-[…])). Settings: not given.
T2 sequence (P15823 whole entry): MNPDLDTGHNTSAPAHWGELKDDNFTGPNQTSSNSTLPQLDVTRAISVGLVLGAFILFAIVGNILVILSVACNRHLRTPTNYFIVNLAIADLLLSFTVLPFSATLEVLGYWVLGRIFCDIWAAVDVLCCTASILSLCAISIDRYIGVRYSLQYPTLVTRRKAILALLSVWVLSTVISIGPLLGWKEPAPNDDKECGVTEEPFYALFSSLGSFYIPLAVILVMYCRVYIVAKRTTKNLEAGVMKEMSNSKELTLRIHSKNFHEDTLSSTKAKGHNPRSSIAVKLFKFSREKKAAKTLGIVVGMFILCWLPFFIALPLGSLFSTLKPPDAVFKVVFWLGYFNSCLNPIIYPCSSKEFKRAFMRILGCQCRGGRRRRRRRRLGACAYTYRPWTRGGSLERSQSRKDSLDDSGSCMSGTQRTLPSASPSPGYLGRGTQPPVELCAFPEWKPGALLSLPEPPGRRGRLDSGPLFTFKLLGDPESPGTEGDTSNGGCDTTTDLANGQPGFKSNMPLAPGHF
T2 sequence (P23944 whole entry): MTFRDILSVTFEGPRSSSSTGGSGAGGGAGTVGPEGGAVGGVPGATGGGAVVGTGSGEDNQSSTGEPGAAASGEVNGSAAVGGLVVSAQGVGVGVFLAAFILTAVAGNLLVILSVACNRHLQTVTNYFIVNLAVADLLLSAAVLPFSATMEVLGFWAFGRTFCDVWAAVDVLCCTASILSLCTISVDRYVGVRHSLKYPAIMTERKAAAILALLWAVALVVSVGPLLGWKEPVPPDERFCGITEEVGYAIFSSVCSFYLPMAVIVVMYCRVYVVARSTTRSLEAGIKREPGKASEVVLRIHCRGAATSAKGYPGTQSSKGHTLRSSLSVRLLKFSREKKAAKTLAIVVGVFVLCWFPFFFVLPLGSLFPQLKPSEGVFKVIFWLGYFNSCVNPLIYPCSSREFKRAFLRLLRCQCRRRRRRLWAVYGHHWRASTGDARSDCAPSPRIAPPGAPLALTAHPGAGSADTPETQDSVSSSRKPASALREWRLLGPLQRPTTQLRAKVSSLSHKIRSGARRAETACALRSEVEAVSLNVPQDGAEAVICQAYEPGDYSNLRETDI
T2 sequence (P43140 whole entry): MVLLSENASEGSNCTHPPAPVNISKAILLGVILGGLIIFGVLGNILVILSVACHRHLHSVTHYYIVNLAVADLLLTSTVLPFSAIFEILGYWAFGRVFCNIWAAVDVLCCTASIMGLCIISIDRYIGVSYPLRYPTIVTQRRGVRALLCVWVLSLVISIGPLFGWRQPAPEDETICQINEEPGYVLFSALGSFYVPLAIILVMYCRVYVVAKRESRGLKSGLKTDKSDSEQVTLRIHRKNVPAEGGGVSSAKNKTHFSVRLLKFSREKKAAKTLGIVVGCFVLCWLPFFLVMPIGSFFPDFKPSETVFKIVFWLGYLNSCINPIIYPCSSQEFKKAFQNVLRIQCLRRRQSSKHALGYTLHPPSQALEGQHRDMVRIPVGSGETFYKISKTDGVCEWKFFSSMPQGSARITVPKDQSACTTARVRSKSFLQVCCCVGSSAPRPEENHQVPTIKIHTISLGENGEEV

SMILES	Ki [nM]
COc1ccccc1N1CCN(CCC(O)c2csc3ccccc23)CC1 (stereo not given)	35
COc1ccccc1N1CCN(CCC(Oc2cccc3ccccc23)c2ccsc2)CC1 (stereo not given)	135
COc1ccccc1N1CCN(CCC(=O)c2csc3ccccc23)CC1	6

These compounds were tested on Mus musculus (assay: Time-dependent effect on 8-OH-DPAT-induced hypothermia (change in body temperature) after 30 min, in mice at 0.1 mg/kg dose). Settings: not given.
Type: functional

SMILES	Temperature change [°C]
COc1ccccc1N1CCN(CCC(O)c2csc3ccccc23)CC1 (stereo not given)	-1.3
COc1ccccc1N1CCN(CCC(Oc2cccc3ccccc23)c2ccsc2)CC1 (stereo not given)	-1.54
COc1ccccc1N1CCN(CCC(=O)c2csc3ccccc23)CC1	-1.66
